Assay results: patent US9725430B2, “Use of small molecule inhibitors targeting EYA tyrosine phosphatase” (Children's Hospital Medical Center, priority 2013, dated 2017)

Experiments:
EYA3 = EYA3 (Homo sapiens (Human), UniProt Q99504); experiment: pNPP assay, full-length human recombinant EYA3; type: biochemical
Source text: The catalytic domain of mouse Eya3 (“ED”, comprising residues 223-510 of Eya3) was purified as described by Rayapureddi, J. P. et al. (FEBS Lett 580, 3853-3859 (2006), incorporated by reference in its entirety). For full-length Eya3 (“hEYA3”), human Eya3 isoform 2 (representing the major species identified in human cell lines by mass spectrometry, expressed as residues 127-573 of NM_001990, isoform 1) was sub-cloned into pDEST565 to express a poly-histidine-Glutathione-S-transferase (His-GST) tagged fusion protein with a TVMV protease site. The protein was purified by glutathione-S-transferase affinity chromatography followed by TVMV cleavage, Ni-NTA chromatography, and finally size exclusion chromatography. […]
(§1) The compounds were then tested using full-length human recombinant, purified EYA3 and pNPP as a substrate. Compounds were dissolved in DMSO and diluted as needed. […] Reactions were incubated at 30° C. for 30 minutes and quenched with 100 mM EDTA pH 10. IC50 values were then calculated directly from regression curves using PRISM software. All reported values are the mean of two independent experiments.

EYA3-SIX2 interaction = EYA3-SIX2 interaction (Homo sapiens (Human), UniProt Q99504); experiment: His-SIX2 pull-down of EYA3 on Ni-NTA; type: binding; settings: 50 μM compound, 15 minutes
EYA3-SIX2 interaction, sequence (Q99504 whole entry, looked up): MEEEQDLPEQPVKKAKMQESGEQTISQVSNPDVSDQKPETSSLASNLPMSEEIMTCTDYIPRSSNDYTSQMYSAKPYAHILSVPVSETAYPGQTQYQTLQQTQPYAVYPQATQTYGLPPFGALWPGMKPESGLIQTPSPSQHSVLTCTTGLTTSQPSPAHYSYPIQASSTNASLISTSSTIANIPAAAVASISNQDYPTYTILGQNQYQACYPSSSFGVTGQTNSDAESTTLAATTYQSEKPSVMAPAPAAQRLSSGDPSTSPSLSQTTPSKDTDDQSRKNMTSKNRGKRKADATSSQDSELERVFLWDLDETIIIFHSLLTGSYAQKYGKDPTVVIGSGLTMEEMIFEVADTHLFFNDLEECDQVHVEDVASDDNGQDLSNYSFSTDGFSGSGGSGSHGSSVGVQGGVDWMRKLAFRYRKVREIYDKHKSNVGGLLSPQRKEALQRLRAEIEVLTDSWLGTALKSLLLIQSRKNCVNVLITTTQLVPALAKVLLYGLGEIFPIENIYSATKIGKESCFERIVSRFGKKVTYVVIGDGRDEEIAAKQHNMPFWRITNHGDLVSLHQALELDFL
EYA3-SIX2 interaction, sequence (Q9NPC8 whole entry partner, looked up): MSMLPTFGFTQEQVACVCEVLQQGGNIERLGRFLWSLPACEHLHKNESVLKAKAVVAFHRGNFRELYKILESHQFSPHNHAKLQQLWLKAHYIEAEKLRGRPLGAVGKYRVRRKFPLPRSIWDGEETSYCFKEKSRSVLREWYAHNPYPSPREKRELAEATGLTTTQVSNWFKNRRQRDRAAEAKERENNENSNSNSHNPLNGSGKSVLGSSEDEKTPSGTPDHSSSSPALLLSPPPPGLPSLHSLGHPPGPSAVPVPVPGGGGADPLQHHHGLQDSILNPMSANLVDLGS
Source text: Each point represents the mean and standard deviation of two independent readings. (C) Plots of Vmax and Km as a function of inhibitor concentration. […] The mixture was loaded on a Ni-NTA column. Beads were washed with 3 column volumes of load buffer (last washes, lanes 2 and 6). Proteins retained on the beads are shown in lanes 3 and 7. Lanes 4 and 8 are molecular weight markers.
One function of the catalytic domain of the EYAs is to mediate its interaction with the SIX proteins. This complex then translocates to the nucleus where the SIX-EYA complex can activate transcription.

HUVECs [1] = experiment: HUVEC cell viability assay (WST-8); type: cell-based, human; settings: 3 days of exposure
Experimental: Additionally, a cell viability assay was conducted over 3 days of exposure to test compounds 1, 1a and 1g in order to assess both the possibility of immediate cellular toxicity as well as any effect on cell proliferation. HUVECs were seeded and equilibrated for 24 hours before addition of the test compounds. Cellular metabolic activity was measured at defined time-points using the tetrazolium dye WST-8 to quantify NAD(P)H-dependent cellular oxidoreductase enzyme activity.

HUVECs [2] = experiment: HUVEC proliferation (MTT); type: cell-based, human; settings: 5 μM, 24 hours
retinal vasculature [3] = experiment: Mouse model of oxygen-induced retinopathy; type: in vivo, mice; settings: 100 or 50 pmoles injected at P12, analyzed at P16
Source text: The mouse model of oxygen-induced retinopathy mimics the retinopathy characteristic of proliferative retiopathy conditions such as retinopathy of prematurity and diabetic retinopathy. […] The resulting retinal hypoxia after day 12, when pups were brought back to 20% O2, induced excessive hypoxia-driven angiogenesis. A characteristic large avascular area at the center of the retina and excessive regrowth of superficial vessels (pre-retinal neovascular tufts) in the mid-peripheral region was observed. […] In contrast, inhibition of either Vegf or Vegfr2 in OIR experiments suppresses both neovascular tuft formation and revascularization.

[4] = system: A673 (Ewings sarcoma) cells; experiment: Mouse xenograft model of Ewings sarcoma; type: in vivo, nude mice; settings: intra-peritoneal 25 mg/kg/day or intra-tumor
Experimental: The affect of EYA inhibitors on a mouse xenograft model of Ewings sarcoma was tested. 5×10^6 A673 (Ewings sarcoma) cells in 0.1 ml sterile matrigel were injected subcutaneously into the dorsal flank region of nude mice. Approximately 5 days after injection, the tumors were about 100-300 mm^3. […] The dose for intra-peritoneal injections was 25 mg/kg/day. The tumor size was monitored every other day. Animals were sacrificed after 2 weeks, or when tumor volume approached 10% of animal weight.

Eya3(ED) = Eya3(ED) (Mus musculus (Mouse), UniProt P97480); experiment: p-nitrophenylphosphate (pNPP) assay, catalytic domain of Eya3; type: biochemical; settings: pNPP substrate
Eya3(ED), sequence (P97480 223-510): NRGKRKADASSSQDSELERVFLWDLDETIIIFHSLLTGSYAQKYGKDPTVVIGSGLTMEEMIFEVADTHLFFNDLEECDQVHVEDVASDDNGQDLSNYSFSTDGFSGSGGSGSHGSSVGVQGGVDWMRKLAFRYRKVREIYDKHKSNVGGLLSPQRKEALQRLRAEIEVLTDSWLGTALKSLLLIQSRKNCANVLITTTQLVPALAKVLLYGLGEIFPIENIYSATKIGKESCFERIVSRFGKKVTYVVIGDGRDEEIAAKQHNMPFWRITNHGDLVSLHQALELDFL
Source text: The catalytic domain of mouse Eya3 (“ED”, comprising residues 223-510 of Eya3) was purified as described by Rayapureddi, J. P. et al. (FEBS Lett 580, 3853-3859 (2006), incorporated by reference in its entirety). For full-length Eya3 (“hEYA3”), human Eya3 isoform 2 (representing the major species identified in human cell lines by mass spectrometry, expressed as residues 127-573 of NM_001990, isoform 1) was sub-cloned into pDEST565 to express a poly-histidine-Glutathione-S-transferase (His-GST) tagged fusion protein with a TVMV protease site. The protein was purified by glutathione-S-transferase affinity chromatography followed by TVMV cleavage, Ni-NTA chromatography, and finally size exclusion chromatography.
An inhibitory assay was conducted using the previously described p-nitrophenylphosphate assay (Rayapureddi, J. P. et al. Nature 426, 295-298 (2003)). Briefly, ED was incubated in a reaction mixture containing 20 mM MES pH 6, 2 mM MgCl2, 125 μM inhibitor, 3.4 mM para-nitrophenol phosphate (pNPP) and 0.01 μg/μL enzyme.
as §1, with “All reported values are the mean of two independent experiments.” left out

retinal vasculature [5] = experiment: Post-natal retinal angiogenesis in mice; type: in vivo
Experimental: Next, retinal blood vessel density and angiogenic extension were studied using induced deletion of Eya3 in mice by PDGFB-icreERT2 starting at the day of birth. Isolectin labeled retinal blood vessels at postnatal day 5 in control Eya3fl/fl (FIGS. 8b and 8d) and experimental Eya3fl/fl; PDGFB-icreERT2 (FIGS. […]) mice. FIGS. 8d and 8e are magnified images of the regions indicated in 8b and 8c, respectively.
Next, treatment with an inhibitor of Eya3 was performed to test the effect on post-natal retinal angiogenesis. Briefly, 100 μM of compound 1a was injected into the eyes of post-natal mice, at P0.5 and P3. P5 retinas were then analyzed for effects on the retinal vasculature.

EYA3, sequence (Q99504 127-573): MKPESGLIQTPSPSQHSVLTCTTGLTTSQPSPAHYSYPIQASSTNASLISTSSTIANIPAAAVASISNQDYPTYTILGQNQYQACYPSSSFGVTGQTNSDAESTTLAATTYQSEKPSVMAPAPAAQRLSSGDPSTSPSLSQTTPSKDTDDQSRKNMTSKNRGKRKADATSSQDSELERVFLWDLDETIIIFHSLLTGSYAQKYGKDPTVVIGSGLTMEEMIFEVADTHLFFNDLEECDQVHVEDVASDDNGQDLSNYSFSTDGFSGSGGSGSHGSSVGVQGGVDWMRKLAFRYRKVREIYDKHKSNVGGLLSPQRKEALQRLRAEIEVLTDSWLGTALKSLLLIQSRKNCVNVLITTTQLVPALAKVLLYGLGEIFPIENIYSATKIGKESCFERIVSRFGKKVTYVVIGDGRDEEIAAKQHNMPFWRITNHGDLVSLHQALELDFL

## CCc1oc2ccccc2c1C(=O)c1cc(Br)c(O)c(Br)c1 [Compound 1, Benzbromarone, reference compound]
EYA3; 0.01% Triton X-100
  inhibitory effect in presence of detergent: retained
EYA3; increasing substrate concentration
  mode of inhibition (substrate titration): not a competitive inhibitor
EYA3-SIX2 interaction
  EYA3-SIX2 interaction in presence of inhibitor: unaffected
HUVECs [1]
  cell viability: reduced cell viability
HUVECs [2]
  HUVEC cell proliferation: no effect on cell proliferation
Retinal vasculature [3]
  formation of neovascular tufts: Significant reduction in the formation of neovascular tufts
[4]
  tumor growth: able to reduce tumor growth

## CCc1oc2ccccc2c1C(=O)c1ccc(O)cc1 [Compound 1a]
Eya3(ED)
  IC50: 19.2 µM
EYA3; pNPP substrate, full-length EYA3
  IC50: 17 µM
HUVECs [1]
  cell viability: reduced cell viability
HUVECs [2]
  HUVEC cell proliferation: no effect on cell proliferation
Retinal vasculature [5]; 100 μM injected into eyes at P0.5 and P3, P5 retinas
  retinal vasculature branch points: quantifiable decrease in branch points
Retinal vasculature [5]; normal oxygen conditions
  retinal angiogenesis in VEC-specific Eya3 knockout model: additional significant reduction in retinal angiogenesis
Retinal vasculature [3]
  formation of neovascular tufts: Significant reduction in the formation of neovascular tufts
